Values after ≈ are worked out from the molar mass of the structure shown. Where two headings read alike, the source gives them in different places.
Assays:
[1] = test system: SARS-CoV-2 in Calu-3 cells; settings: Ko et al [34]; cited from earlier work
[2] = pH 7.09
[3] = format: physicochemical
From the text: pH=pKa+Log10[Nic−ve]/[NicOH] Eqn 1
pHp=pKa+log(S−So)/So Eqn 4
So=the molar intrinsic solubility of the undissociated acid (NicOH), and S=the molar concentration of the salt form initially added.

[4] = cited from earlier work
[5] = test system: oxidative phosphorylation; settings: cited from earlier work
[6] = Dissolution of niclosamide solvates (water precipitate, acetone and ethanol recrystallized) at pH 9.3; settings: for solubility (equilibrium supernatant concentration several days after dissolution): pH 9.3; for initial dissolution rate, intrinsic parameter: pH 9.3 buffer, 3.5 mgs in 10 mls
From the text: To start to evaluate the various expected polymorphs and to try and obtain a morphology that was perhaps like the purchased materials (of unknown processing), three samples were made i.e., the “water-hydrate” precipitated from ethanol into excess water and two that were recrystallized from acetone and from ethanol.
It was filtered on a sintered glass filter, washed three times with deionized water, and dried. The material was ground by mortar and pestle ready for the dissolution test and viewed microscopically to evaluate its crystal morphology.
Each material was also viewed microscopically to evaluate their crystal morphologies.
Dissolution of the solvates. […] 2 uL aliquots were taken directly from the stirred solution in the 20 mL scintillation vial at appropriate time intervals and absorbance at 333 nm was measured by nanodrop spectrophotometer.

[7] = Literature aqueous solubility of niclosamide; settings: van Tonder et al [17], converted
[8] = test system: SARS-CoV-2 in Vero 6 cells; settings: Vero 6 cells, Jeon et al [14]; read-out: IC50 for viral replication; cited from earlier work
[9] = same pH as Yomesan extraction (pH 9.3)
[10] = Equilibrium dissolution of AK Sci niclosamide versus pH (supernatant concentration by UV/Vis at 333 nm); settings: for Average [Nic] (uM) UV/Vis, 333 nm), supernatant concentration: 20° C.
[11] = for supernatant concentration reached at 3 hrs: more efficient stirring, pH 9.5, nominal 1 mM
[12] = test system: GR; settings: read-out: relative trans-activation potency (EC50); cited from earlier work
[13] = Supersaturated solution precipitation of niclosamide: amount in solution; settings: pH 9.3, equilibrated
[14] = Dissolution and conversion of Sigma niclosamide (3 hrs and overnight stirring)

SMILES: N=C(N)c1ccc2cc(OC(=O)c3ccc(N=C(N)N)cc3)ccc2c1 [Nafamostat]
- antiviral activity [1]: few nanomolar

SMILES: O.O=C(Nc1ccc([N+](=O)[O-])cc1Cl)c1cc(Cl)ccc1O [presumed monohydrate]
- solubility [2]: 1.24 µM
- expected concentration in solution from pHp model ([3]; pH 6): 1 uM

SMILES: CC(C)(C)c1cc(C=C(C#N)C#N)cc(C(C)(C)C)c1O [SF 6847, 3,5-Di-tert-butyl-4-hydroxy-benzylidene-Malononitrile]
- pKa ([4]; Terada [39]): 6.83
- concentration of uncoupling activity ([5]; Terada [39]): 10 nM

SMILES: O=C(Nc1ccc([N+](=O)[O-])cc1Cl)c1cc(Cl)ccc1O [NicAcetone-recrys]
- solubility (equilibrium supernatant concentration several days after dissolution) ([6]; listed as acetone recrystallized material): 79.4 µM (≈ 26 µg/mL)
- initial dissolution rate, intrinsic parameter [6]: 0.0369 µM/mg

SMILES: FC(F)(F)c1nc2c(Cl)c(Cl)c(Cl)c(Cl)c2[nH]1 [TTFB]
- pKa ([4]; in 50% ethanol): 5.5
- concentration of uncoupling activity ([5]; Terada [39]): 100 nM

SMILES: O=C(Nc1ccc([N+](=O)[O-])cc1Cl)c1cc(Cl)ccc1O [Anhydrate]
- solubility of crystal forms in distilled water [7]: 40.4 µM

SMILES: O.O=C(Nc1ccc([N+](=O)[O-])cc1Cl)c1cc(Cl)ccc1O [Monohydrates HB]
- solubility of crystal forms in distilled water [7]: 1.87 µM

SMILES: CCN(CC)CCCC(C)Nc1ccnc2cc(Cl)ccc12 (centres unmarked) [chloroquine]
- IC50 [8]: 9.12 µM

SMILES: O.O=C(Nc1ccc([N+](=O)[O-])cc1Cl)c1cc(Cl)ccc1O [Monohydrates HA]
- solubility of crystal forms in distilled water [7]: 2.9 µM

SMILES: O=C(Nc1ccc([N+](=O)[O-])cc1Cl)c1cc(Cl)ccc1O [NicH20ppt]
- solubility (equilibrium supernatant concentration several days after dissolution) ([6]; listed as water solvate): 132.6 µM (≈ 43.4 µg/mL)
- initial dissolution rate, intrinsic parameter [6]: 0.104 µM/mg

SMILES: O=C(O)c1ccccc1Nc1cccc(C(F)(F)F)c1 [flufenamic acid]
- pKa ([4]; Terada [39]): 3.85
- concentration of uncoupling activity ([5]; Terada [39]): 50000 nM

SMILES: O=C(Nc1ccc([N+](=O)[O-])cc1Cl)c1cc(Cl)ccc1O [AK Sci Niclosamide]
- clear supernatant solution concentration [9]: 520 µM
- solubility (equilibrium supernatant concentration several days after dissolution) [6]: ~383 µM (≈ 125 µg/mL)
- pKa fitted from pHp curve to supernatant concentration data ([3]; So 2.53 uM): 7.12
- Average [Nic] (uM) UV/Vis, 333 nm), supernatant concentration ([10]; measured pH 3.64, stirred to equilibrium (48 hrs)): 2.53 µM
- Average [Nic] (uM) UV/Vis, 333 nm), supernatant concentration ([10]; measured pH 7.05, 48 hrs): 8.68 µM
- Average [Nic] (uM) UV/Vis, 333 nm), supernatant concentration ([10]; measured pH 7.64, 48 hrs): 16.75 µM
- Average [Nic] (uM) UV/Vis, 333 nm), supernatant concentration ([10]; measured pH 8.06, 48 hrs): 25.83 µM
- Average [Nic] (uM) UV/Vis, 333 nm), supernatant concentration ([10]; measured pH 8.26, 48 hrs): 47.26 µM
- Average [Nic] (uM) UV/Vis, 333 nm), supernatant concentration ([10]; measured pH 8.53, 48 hrs): 83.31 µM
- Average [Nic] (uM) UV/Vis, 333 nm), supernatant concentration ([10]; measured pH 8.75, 48 hrs): 137.29 µM
- Average [Nic] (uM) UV/Vis, 333 nm), supernatant concentration ([10]; measured pH 9.04, 48 hrs): 215.66 µM
- Average [Nic] (uM) UV/Vis, 333 nm), supernatant concentration ([10]; measured pH 9.22, 48 hrs): 344.32 µM
- Average [Nic] (uM) UV/Vis, 333 nm), supernatant concentration ([10]; measured pH 9.32, 48 hrs): 382.68 µM
- Average [Nic] (uM) UV/Vis, 333 nm), supernatant concentration ([10]; measured pH 9.4, 48 hrs): 466.14 µM
- Average [Nic] (uM) UV/Vis, 333 nm), supernatant concentration ([10]; measured pH 9.63, 48 hrs): 703.26 µM
- limiting (intrinsic) solubility So of the protonated acid ([10]; pH 3.66): 2.53 µM
- polymorph stability of excess powder in stirred buffer ([10]; stirred 24 hrs and longer, days, in presence of original powder): did not readily convert to the less soluble hydrates
- supernatant concentration reached at 3 hrs ([11]; listed as AK Sci niclosamide): 564 µM
- fitted logarithmic dissolution rate, pre-ln factor ([11]; pH 8.62, nominal 1 mM, first hour): 22
- fitted logarithmic dissolution rate, pre-ln factor ([11]; pH 8.72, nominal 1 mM): 24
- fitted logarithmic dissolution rate, pre-ln factor ([11]; pH 9.06, nominal 1 mM): 38
- initial rate of dissolution / extraction over first three minutes ([11]; pH 9.3 buffer): 51.7 µM/min
- intrinsic dissolution rate ([11]; pH 9.3 buffer, converted from uM/min): 0.28 µg/s
- fitted logarithmic dissolution rate, pre-ln factor ([11]; pH 9.36, nominal 1 mM): 71

SMILES: O=C(Nc1ccc([N+](=O)[O-])cc1Cl)c1cc(Cl)ccc1O [NicEtOH-recrys]
- initial dissolution rate, intrinsic parameter [6]: 0.0439 µM/mg

SMILES: O=C(Nc1ccc([N+](=O)[O-])cc1Cl)c1cc(Cl)ccc1O [Nic−ve]
- solubility limit of the negatively charged salt ([10]; pH 9.5): ~640 µM
- solubility limit of the deprotonated salt ([10]; pH 9.63): at least 703.6 uM
- solubility limit of the negatively charged salt ([10]; pH not stated at the place): ≥ 670 µM

SMILES: N#CC(C#N)=NNc1ccc(OC(F)(F)F)cc1 [FCCP]
- concentration of uncoupling activity [5]: 100 nM

SMILES: Cc1cccc(C)c1OCC(=O)N[C@@H](Cc1ccccc1)[C@@H](O)C[C@H](Cc1ccccc1)NC(=O)[C@H](C(C)C)N1CCCNC1=O [lopinavir]
- IC50 [8]: 7.28 µM

SMILES: Oc1c(Cl)c(Cl)c(Cl)c(Cl)c1Cl [PCP]
- pKa ([4]; Terada [39]): 4.80
- concentration of uncoupling activity ([5]; Terada [39]): 1000 nM

SMILES: O=C(Nc1ccc([N+](=O)[O-])cc1Cl)c1cc(Cl)ccc1O [precipitated material]
- solubility of material precipitated in situ from supersaturated solution [13]: 180.9 µM

SMILES: CC(C)(C)c1cc(Cl)cc(C(=O)Nc2ccc([N+](=O)[O-])cc2Cl)c1O [S-13]
- pKa ([4]; Terada [39]): 6.57
- concentration of uncoupling activity ([5]; Terada [39]): 30 nM

SMILES: O=C(Nc1ccc([N+](=O)[O-])cc1Cl)c1cc(Cl)ccc1O [Sigma niclosamide]
- supernatant concentration reached at 3 hrs [11]: 680 µM
- fitted logarithmic dissolution rate, factor of ln(x) ([11]; pH 9.44 buffer, more optimized (standardized) stirring): 116
- reduction of amount of niclosamide in supernatant solution after overnight equilibration ([14]; over the whole pH range): ~3.5 ×
- solubility after overnight equilibration ([14]; pH 9.3): 103 µM (≈ 33.7 µg/mL)
- polymorph stability of excess powder in stirred buffer ([14]; several hours after the first 3 hrs): converted to a much lower solubility polymorph
- loss of material concentration from 3 hrs to 24 hrs ([14]; ~pH 9.5): 434 µM
- supernatant niclosamide concentration at 3 hrs ([14]; ~pH 9.5): 681 µM
- supernatant niclosamide concentration after 24 hrs (overnight stirring) ([14]; ~pH 9.5, filtered 0.22 um): 247 µM

SMILES: CCC(=O)O[C@]1(C(=O)SCF)[C@H](C)C[C@H]2[C@@H]3C[C@H](F)C4=CC(=O)C=C[C@]4(C)[C@@]3(F)[C@@H](O)C[C@@]21C [fluticasone propionate]
- EC50 [12]: 320 ± 40 pM
